The values that follow come from patent US6733971B2, “Method for identifying an agent that affects a hedgehog signaling pathway” (priority 1998, dated 2004).

For one experiment, the system named is ShhRE reporter gene. Briefly: Shh-N mediated induction of ShhRE reporter gene activity. In kind it is cell-based, mouse. As to conditions: 5 nM (data not shown). As for the experimental part:
Methods described above in Example 6 were used in addition to the following protocols. P19 cells were transfected with a ShhRE-tkLUC reporter plasmid and three copies of a mutant element called mShhRE-tkLUC and treated with or without 1 nM Shh. Cell lysates were obtained after 30 hours and were later assayed for luciferase reporter activity. A graph (FIG. 5B) representing relative luciferase units per twenty μg (RLU/20 μg) was plotted using results obtained from three separate experiments (mean ±sd).

A further experiment concerns Isl1 mRNA. Briefly: Isl1 mRNA in P19 cells, RT-PCR. In kind it is cell-based, mouse. As to conditions: 5 nM for 12 hours, 1 nM Shh-N for 24 hours. As for the experimental part:
Methods described in Example 6 were used in addition to the following protocols. P19 cells were treated with (FIG. 8A, lanes 2 and 4) or without (FIG. 8A, lanes 1 and 3) 1 nM Shh-N for 24 hours and 5 nM OA (FIG. 8A, lanes 3 and 4) for 12 hours and total RNA was obtained. An internal control containing a 763 bp insert into the SphI site of the Islet-1 cDNA was transcribed in vitro to prepare sense-oriented RNA. 1 ng of this RNA along with 100 ng of total RNA from appropriately treated P19 cells was reverse transcribed using Superscript II™ and one-tenth of each reaction was PCR amplified. Specific primers for Islet-1; Forward primer: 5′TCAAAC CTA CTT TGG GGT CTT A 3′SEQ ID NO:5. Reverse primer: 5′ATCGCCGGGGATGAGCTGGCGGCT 3′SEQ ID NO:6, and for COUP-TFII; Forward primer: 5′GATATGGCAATGGTAGTCAGCACGTGG 3′. SEQ ID NO:7, Reverse primer: 5′AGCTTCTCCACTTGCTCTTGG 3′SEQ ID NO:8, were used to PCR amplify (94° C. for 1 minute, 54° C. for 1 minute, and 72° C. for 1 minute. Twenty-two cycles were used for amplifying Islet-1 and the resulting products were separated on a 1% agarose gel in TAE buffer and visualized by ethidium bromide staining. A 1 kb DNA ladder (Stratagene) was used to estimate the size of the products. A 427 bp Isl1 fragment and a 838 bp COUP-TFII fragment was used to estimate changes in mRNA levels.

The test system of the next experiment is PP2B. The following applies: cited from earlier work.
Another experiment concerns HNF3β and Isl-1. Kind of experiment: SHH induction of HNF3β and Isl-1 in chick embryo neurotube explant. In kind it is cell-based. From the text:
Most of the components identified so far in the HH signaling pathway are conserved from Drosophila to vertebrates. The phosphatase activity found in cl-8 cells may also be conserved in vertebrates. Sonic HH (SHH), the vertebrate homolog of HH, induced the floor plate marker hepatocyte nuclear factor 3β (HNF3) and motor neuron marker islet-1 (Is1-1) in the developing neurotube. In chick embryo neurotube explant, exogenously provided SHH induced the expression of HNF3β and Isl-1.

The next experiment has as its system Ci. Briefly: Ci induction in cl-8 cells with or without HH-N conditioned medium, Western blot. In kind it is cell-based, Drosophila. As for the experimental part: cl-8 cells were cultured as described in Van Leeuwen, F., et al. Nature, 368:342-344, 1994. Culture and transfection of S2 cells were performed as described in Porter, J. A. et al. Cell, 86: 21-34, 1996. The conditioned medium was made by culturing transfected S2 cells in cl-8 medium, and induced by adding CUSO4, to the final concentration of 0.5 Mm overnight. The conditioned medium was harvested the next day, centrifuged to remove S2 cells and the supernatant was used. To make lysate from cl-8 cells, cl-8 cells were washed, harvested in cold phosphate buffered saline (PBS), and then resuspended in NP-40 lysis buffer (150 Mm NaCl, 50 Mm Tris pH8, 1% NP-40, 1 Mm EDTA, 20 μg/ml aprotinin, 20 μg/ml leupeptin, 1 μg/ml pepstatin A, 2.5 μg/ml antipain, 100 μM PMSF, 50 mM NaF, 5 mM Na2P4O7). Cells were lysed at 4° C. for 10 minutes, then centrifuged at 13,000×g for 10 minutes. The supernatant was saved for Western blot analysis.
SDS-PAGE and protein transfer were carried out by standard methods. The primary antibodies used were: rat monoclonal anti-Ci 2Al 1:20 dilution; mouse monoclonal anti-Ptc 1:1000 dilution; mouse monoclonal anti-actin 1:2500. Secondary antibodies were from Jackson Immunologicals. The filters were developed using SuperSignal from Pierce.
Tautomycin (TAU) and okadaic acid (OA) were purchased from Calbiochem and dissolved in dimethyl sulfoxide (DMSO) to different concentrations. The phosphatase inhibitors were mixed with conditioned medium and the concentration of DMSO was adjusted to 0.2% for each sample. cl-8 cells were incubated with conditioned medium and phosphatase inhibitor mixture for 4 hours and lysed for analysis.

On to `C=C1[C@@H](O)[C@@H]2O[C@]3(CC[C@H](/C=C/[C@@H](C)[C@@H]4CC(C)=C[C@@]5(O[C@H](C[C@@](C)(O)C(=O)O)CC[C@H]5O)O4)O3)CC[C@H]2O[C@@H]1[C@@H](O)C[C@H](C)[C@H]1O[C@@]2(CCCCO2)CC[C@H]1C` [OA, okadaic acid], for which, in the experiment with ShhRE reporter gene, the “Shh-N mediated induction of ShhRE reporter gene activity” value is “completely blocked”. For the same compound, in the experiment with Isl1 mRNA, the “Shh-N induction of Is11 mRNA” value was “completely blocked”. In the experiment with PP2B, the “effect on PP2B” value is on record as “no effect”. Moreover, the “induction of HNF3β and Isl-1” value with HNF3β and Isl-1 (1 nM, 2.5 mg/ml of SHH) is on record as “reduced the induction”; with HNF3β and Isl-1 (10 nM, 10 mg/ml of SHH), “completely blocked the induction”. In addition, in the experiment with HNF3β and Isl-1 (1 nM, 10 mg/ml of SHH), the “effect on induction of HNF3β and Isl-1 at higher SHH” value is listed as “reversed”. In addition, the Ci level entry in the experiment on Ci (1 nM, absence of HH signaling) is given as “significantly reduced”. In addition, the “Ci mobility form (phosphorylation)” value with Ci (1 nM, absence of HH signaling) is given as “shifted Ci to the low mobility form”. For the same compound, in the experiment with Ci (5 to 10 nM), the Ci detection entry was “completely undetectable”. Also, the “Ci level and mobility” value with Ci (presence of HH) was “overcame the induction effect of HH”.
